Assay results reported in EP4389751A1, “HETEROCYCLIC COMPOUNDS AND USES THEREOF” (Kumquat Biosciences Inc., priority 2021, dated 2024).

Biological target: T1, K-Ras G12S (Homo sapiens, UniProt P01116, G12S)
T1 construct: made in house; host or cells: E. coli (e.g., BL21 (DE3))
Assay: HTRF assay of the K-Ras / SOS1 interaction
Type: biochemical
Details: IC50 (against K-Ras G12D) to IC50 (against K-Ras G12S)
Source text: This assay can be also used to assess a selective inhibition or reduction of signaling output of a mutant Ras protein relative to a wildtype, or relative to a different mutant Ras protein. For example, the equilibrium interaction of wildtype Kras or K-Ras mutant (e.g., wildtype or a mutant thereof including those mentioned in Example 6) with SOS1 (e.g., hSOS1) can be assessed as a proxy or an indication for a subject compound's ability to bind and inhibit Ras protein. HTRF assay detects from (i) a fluorescence resonance energy transfer (FRET) donor (e.g., antiGST-Europium) that is bound to GST-tagged K-Ras mutant to (ii) a FRET acceptor (e.g., anti-6His-XL665) bound to a His-tagged hSOS 1.
The assay buffer can contain ~5 mM HEPES pH 7.4, -150 mM NaCI, - 1 mM DTT, 0.05% BSA and 0.0025% (v/v) Igepal. A Ras working solution is prepared in an assay buffer containing typically a suitable amount of the protein construct (e.g., GST-tagged K-Ras mutant) and the FRET donor (e.g., antiGST-Eu(K) from Cisbio, France). A SOS1 working solution is prepared in an assay buffer containing suitable amount of the protein construct (e.g., His-hSOS1) and the FRET acceptor (e.g., anti-6His-XL665 from Cisbio, France). A suitable amount of the protein construct will depend on the range of activity or range of IC50 values being detected or under investigation. For detecting IC50 within a range of 500 nM, the protein constructs of the same range of molarity can be utilized.
A fixed volume of DMSO with or without test compound is transferred into a 384-well plate. Ras working solution is added to all wells of the test plate. SOS1 working solution is added to all wells except for those that are subsequently filled the inhibitor control solution. Upon incubation for about 10 minutes or longer, the fluorescence is measured with a M1000Pro plate reader (Tecan) using HTRF detection (excitation 337nm, emission 1 : 620nm, emission 2: 665nm). Compounds are tested in duplicates at different concentrations (for example, 10 µM, 2.5 µM, 0.63 µM, 0.16 µM, 0.04 µM, 0.01 µM test compound). The ratiometric data (i.e., emission 2 divided by emission 1) is used to calculate IC50 values against Ras using GraphPad Prism (GraphPad software). Following this general procedure, samples were tested with or without a subject compound disclosed herein including compounds exemplified in Table 3 to assess their abilities to inhibit K-Ras G12S relative to another mutant (e.g., K-Ras G12D). Signaling output measured in terms of IC50 values can be obtained, a ratio of IC50 against one mutant relative to another mutant can be calculated. For instance, a selective reduction of K-Ras G12S signaling output can be evidenced by a ratio greater than one. In particular, a selective reduction of K-Ras G12S signaling relative to K-Ras G12D signaling is evidenced as the ratio of IC50 (against K-Ras G12D) to IC50 (against K-Ras G12S) is greater than 1. […]

**Q.** Which “Ratio of IC50 KRAS G12D vs. IC50 KRAS G12S” value (shortened to “Ratio”) does the source give for “1-(7-(7-(2-amino-7-fluorobenzo[d]thiazol-4-yl)-6-chloro-8-fluoro-2-(((2R,7aS)-2-fluorotetrahydro-1H-pyrrolizin-7a(5H)-yl)methoxy)quinazolm-4-yl)-2,7-diazaspiro[3.5]nonane-2-carbonyl)-1H-imidazole-4-carbonitrile [Compound A179]” here?
**A.** A (A: indicates that the ratio of IC50 against KrasG12D vs. IC50 against KrasG12S is 1-fold or greater)

**Q.** Which “Ratio” value does the source give for Cc1cnn(C(=O)N2C3CCC2CN(c2nc(OC[C@@]45CCCN4C[C@H](F)C5)nc4c(F)c(-c5ccc(F)c6sc(N)nc56)c(Cl)cc24)C3)c1 [Compound A113, (3-(7-(2-amino-7-fluorobenzo[d]thiazol-4-yl)-6-chloro-8-fluoro-2-(((2R,7aS)-2-fluorotetrahydro-1H-pyrrolizin-7a(5H)-yl)methoxy)quinazolin-4-yl)-3,8-diazabicyclo[3.2.1]octan-8-yl)(4-methyl-1H-pyrazol-1-yl)methanone] here?
**A.** A (A: indicates that the ratio of IC50 against KrasG12D vs. IC50 against KrasG12S is 1-fold or greater)

**Q.** C[C@H](Oc1nc(N2CCN(C(=O)Nc3nccs3)CC(O)C2)c2cc(Cl)c(-c3ccc(F)c4sc(N)c(C#N)c34)c(F)c2n1)[C@@H]1CCCN1C (stereo partly drawn) [Compound A118, 4-(7-(2-amino-3-cyano-7-fluorobenzo[b]thiophen-4-yl)-6-chloro-8-fluoro-2-((S)-1-((S)-1-methylpyrrolidin-2-yl)ethoxy)quinazolin-4-yl)-6-hydroxy-N-(thiazol-2-yl)-1,4-diazepane-1-carboxamide] was tested. Which “Ratio” value did it give?
**A.** A (A: indicates that the ratio of IC50 against KrasG12D vs. IC50 against KrasG12S is 1-fold or greater)

**Q.** With N#Cc1cnn(C(=O)N2C3CCC2CN(c2nc(OC[C@@]45CCCN4C[C@H](F)C5)nc4c(F)c(-c5cc(O)cc6ccccc56)ccc24)C3)c1 [Compound A120, 1-(3-(8-fluoro-2-(((2R,7aS)-2-fluorotetrahydro-1H-pyrrolizin-7a(5H)-yl)methoxy)-7-(3-hydroxynaphthalen-1-yl)quinazolin-4-yl)-3,8-diazabicyclo[3.2. 1]octane-8-carbonyl)-1H-pyrazole-4-carbonitrile] as the molecule, how does the “Ratio” value read?
**A.** A (A: indicates that the ratio of IC50 against KrasG12D vs. IC50 against KrasG12S is 1-fold or greater)

**Q.** With N#Cc1c(N)sc2c(F)ccc(-c3c(Cl)cc4c(N5CCN(CC6CC6)C6(CN(C(=O)n7cncn7)C6)C5)nc(OC[C@@]56CCCN5C[C@H](F)C6)nc4c3F)c12 [Compound A139, 2-amino-4-(6-chloro-4-(5-(cyclopropylmethyl)-2-(1H-1,2,4-triazole-1-carbonyl)-2,5,8-triazaspiro[3.5]nonan-8-yl)-8-fluoro-2-(((2R,7aS)-2-fluorotetrahydro-1H-pyrrolizin-7a(5H)-yl)methoxy)quinazolin-7-yl)-7-fluorobenzo[b]thiophene-3-carbonitrile] as the molecule, how does the “Ratio” value read?
**A.** A (A: indicates that the ratio of IC50 against KrasG12D vs. IC50 against KrasG12S is 1-fold or greater)

**Q.** Nc1nc2c(-c3c(Cl)cc4c(NC5CCC6(C5)CN(C(=O)n5cncn5)C6)nc(OC[C@@]56CCCN5C[C@H](F)C6)nc4c3F)ccc(F)c2s1 (stereo partly drawn) [Compound A142, (6-((7-(2-amino-7-fluorobenzo[d]thiazol-4-yl)-6-chloro-8-fluoro-2-(((2R,7aS)-2-fluorotetrahydro-1H-pyrrolizin-7a(5H)-yl)methoxy)quinazolin-4-yl)amino)-2-azaspiro[3.4]octan-2-yl)(1H-1,2,4-triazol-1-yl)methanone] was tested. Which “Ratio” value did it give?
**A.** A (A: indicates that the ratio of IC50 against KrasG12D vs. IC50 against KrasG12S is 1-fold or greater)

**Q.** How did the “Ratio” value turn out when Nc1nc2c(-c3c(Cl)cc4c(NC5CCN(C(=O)Nc6ccncn6)CC5)nc(OC[C@@]56CCCN5C[C@H](F)C6)nc4c3F)ccc(F)c2s1 [Compound A147, 4-((7-(2-amino-7-fluorobenzo[d]thiazol-4-yl)-6-chloro-8-fluoro-2-(((2R,7aS)-2-fluorotetrahydro-1H-pyrrolizin-7a(5H)-yl)methoxy)quinazolin-4-yl)amino)-N-(pyrimidin-4-yl)piperidine-1-carboxamide] was run?
**A.** A (A: indicates that the ratio of IC50 against KrasG12D vs. IC50 against KrasG12S is 1-fold or greater)

**Q.** N#Cc1c(N)sc2c(F)ccc(-c3c(Cl)cc4c(OC5CCN(C(=O)Nc6nccs6)C5)nc(OC[C@@]56CCCN5C[C@H](F)C6)nc4c3F)c12 (stereo partly drawn) [Compound A150, 3-((7-(2-amino-3-cyano-7-fluorobenzo[b]thiophen-4-yl)-6-chloro-8-fluoro-2-(((2R,7aS)-2-fluorotetrahydro-1H-pyrrolizin-7a(5H)-yl)methoxy)quinazolin-4-yl)oxy)-N-(thiazol-2-yl)pyrrolidine-1-carboxamide] was tested. Which “Ratio” value did it give?
**A.** A (A: indicates that the ratio of IC50 against KrasG12D vs. IC50 against KrasG12S is 1-fold or greater)

**Q.** N#Cc1nccn1C(=O)N1CCC(Nc2nc(OC[C@@]34CCCN3C[C@H](F)C4)nc3c(F)c(-c4ccc(F)c5sc(N)nc45)c(Cl)cc23)CC1 [Compound A155, 1-(4-((7-(2-amino-7-fluorobenzo[d]thiazol-4-yl)-6-chloro-8-fluoro-2-(((2R,7aS)-2-fluorotetrahydro-1H-pyrrolizin-7a(5H)-yl)methoxy)quinazolin-4-yl)amino)piperidine-1-carbonyl)-1H-imidazole-2-carbonitrile] was tested. Which “Ratio” value did it give?
**A.** A (A: indicates that the ratio of IC50 against KrasG12D vs. IC50 against KrasG12S is 1-fold or greater)

**Q.** Which “Ratio” value does the source give for N#Cc1c(N)sc2c(F)ccc(-c3c(Cl)cc4c(N5CCN(C(=O)Nc6nccs6)CC(O)C5)nc(OC[C@@]56CCCN5C[C@H](F)C6)nc4c3F)c12 (stereo partly drawn) [Compound A164, 4-(7-(2-amino-3-cyano-7-fluorobenzo[b]thiophen-4-yl)-6-chloro-8-fluoro-2-(((2R,7aS)-2-fluorotetrahydro-1H-pyrrolizin-7a(5H)-yl)methoxy)quinazolin-4-yl)-6-hydroxy-N-(thiazol-2-yl)-1,4-diazepane-1-carboxamide] here?
**A.** A (A: indicates that the ratio of IC50 against KrasG12D vs. IC50 against KrasG12S is 1-fold or greater)

**Q.** How did the “Ratio” value turn out when Nc1nc2c(-c3c(Cl)cc4c(N5CC(N6CCN(C(=O)n7cncn7)CC6)C5)nc(OC[C@@]56CCCN5C[C@H](F)C6)nc4c3F)ccc(F)c2s1 [Compound A166, (4-(1-(7-(2-amino-7-fluorobenzo[d]thiazol-4-yl)-6-chloro-8-fluoro-2-(((2R,7aS)-2-fluorotetrahydro-1H-pyrrolizin-7a(5H)-yl)methoxy)quinazolin-4-yl)azetidin-3-yl)piperazin-1-yl)(1H-1,2,4-triazol-1-yl)methanone] was run?
**A.** A (A: indicates that the ratio of IC50 against KrasG12D vs. IC50 against KrasG12S is 1-fold or greater)

**Q.** For C[C@H](Oc1nc(N2CCCCC3(CN(C(=O)n4cncn4)C3)C2)c2cc(Cl)c(-c3ccc(F)c4sc(N)c(C#N)c34)c(F)c2n1)[C@@H]1CCCN1C [Compound A167, 4-(4-(2-(1H-1,2,4-triazole-1-carbonyl)-2,6-diazaspiro[3.6]decan-6-yl)-6-chloro-8-fluoro-2-((S)-1-((S)-1-methylpyrrolidin-2-yl)ethoxy)quinazolin-7-yl)-2-amino-7-fluorobenzo[b]thiophene-3-carbonitrile], which “Ratio” value is on record?
**A.** A (A: indicates that the ratio of IC50 against KrasG12D vs. IC50 against KrasG12S is 1-fold or greater)

**Q.** For N#Cc1cccn1C(=O)N1CC2CCC(C1)N2c1nc(OC[C@@]23CCCN2C[C@H](F)C3)nc2c(F)c(-c3ccc(F)c4sc(N)nc34)c(Cl)cc12 [Compound A172, 1-(8-(7-(2-amino-7-fluorobenzo[d]thiazol-4-yl)-6-chloro-8-fluoro-2-(((2R,7aS)-2-fluorotetrahydro-1H-pyrrolizin-7a(5H)-yl)methoxy)quinazolin-4-yl)-3,8-diazabicyclo[3.2. 1]octane-3-carbonyl)-1H-pyrrole-2-carbonitrile], which “Ratio” value is on record?
**A.** A (A: indicates that the ratio of IC50 against KrasG12D vs. IC50 against KrasG12S is 1-fold or greater)
